From patent US20160346249A1 (priority 2012, published 2016)

Key:
[1] = Phase 2 efficacy study in patients with Major Depressive Disorder; format: in vivo, human
Source text: Subjects were identified who were between the ages of 18-65 (inclusive), and met criteria for Major Depressive Disorder in accordance with the Diagnostic and Statistical manual of Mental Disorders-IV-TR and confirmed by the MINI International Neuropsychiatric Interview.
Subjects were required to refrain from taking antidepressants, anticonvulsants including gabapentin and pregabalin, neuroleptics, MAO inhibitors, barbiturates, benzodiazepines, stimulants, antipsychotics, lithium, anxiolytics and beta blockers starting two weeks prior to the study and continuing until after the follow-up visit.
Samples were drawn to assess total bilirubin, alkaline phosphatase, ALT (SGPT), AST (SGOT), blood urea nitrogen (BUN), creatinine, glucose, uric acid, calcium, phosphorus, total protein, albumin, total cholesterol, LDL, HDL, triglycerides, sodium, potassium, bicarbonate, chloride, GGT and creatine kinase, Hepatitis B, C and HIV serologies, TSH, drug screen and serum pregnancy test for females.
Efficacy was determined by measuring the change from baseline in the Montgomery-Asberg Depression Rating Scale (MADRS), the HAMD-17, the Clinical Global Impression Global Improvement Scale (CGI-I), the Clinical Global Impression-Severity scale (CGI-S) and the Derogatis Interview for Sexual Functioning Self-Report (DISF-SR). […] Comparisons between treatment groups based on MADRS (the primary efficacy parameter), HAMD-17, Anhedonia, DISF-SR, CGI-I and CGI-S scores were analyzed using a mixed-repeated measures (MMRM) analysis model including factors for Subject, Visit, Treatment Arm and Baseline value as a covariate. Adjusted least-squares means from these models are presented. Comparisons between groups were made at each post-baseline visit using model-based contrasts and adjusted degrees of freedom. For these analyses no explicit data imputations were made prior to the analysis. Response and remission categorical data were analyzed using chi-square tests. Inferential analyses of safety data were conducted with ANOVA models or chi-square tests. Two-tail alpha was set to 0.05. All analyses were conducted using SAS version 9.2.

[2] = test system: Salmonella typhimurium and Escherichia coli tester strains; assay: Bacterial reverse mutation assay (Ames); format: cell-based; conditions: up to 5000 μg/plate, with and without S9
[3] = Phase 1b multiple-dose placebo-controlled safety study, 8 weeks; format: in vivo, human
Source text: This Phase 1b study enrolled 46 male and female subjects.

[4] = 100 mg, Visit 8, LOCF, Completers, 50% reduction or more of baseline total score
[5] = Visit 8 (Week 6), MMRM, MITT, n = 30
[6] = 8 weeks, 25 to 75 mg BID, N = 31, Safety Population

Clc1ccc([C@]23CNC[C@H]2C3)cc1Cl [amitifadine, (+)-1-(3,4-dichlorophenyl)-3-azabicyclo[3.1.0]hexane]
DISF-SR scores vs placebo ([1]; 100 mg, low and high baseline groups): no differences between (+)-1-(3,4-dichlorophenyl)-3-azabicyclo[3.1.0]hexane 100 mg and placebo
Response rate, HAMD-17 (%) [1, 4]: 55.00%
Response rate, MADRS (%) [1, 4]: 40.00%
Remission rate, HAMD-17 (%) ([1]; 100 mg, Visit 8, LOCF, Completers, HAMD-17 ≦ 7): 20.00%
Remission rate, MADRS (%) ([1]; 100 mg, Visit 8, LOCF, Completers, MADRS ≦ 12): 30.00%
Anhedonia factor (LS Mean - SE) [1, 5]: 7.92 (0.50)
CGI-I (LS Mean - SE) [1, 5]: 2.13 (0.20)
CGI-S (LS Mean - SE) [1, 5]: 3.31 (0.15)
HAMD-17 (LS Mean - SE) [1, 5]: 14.90 (1.40)
MADRS (LS Mean - SE) [1, 5]: 18.16 (1.21)
MADRS, Difference (95% CI) placebo vs drug ([1]; Visit 8, MMRM, MITT, P = 0.028): 3.83 (0.41, 7.26)
CGI-I, Difference (95% CI) placebo vs drug ([1]; Visit 8, MMRM, MITT, P = 0.030): 0.62 (0.06, 1.18)
Anhedonia factor, Difference (95% CI) placebo vs drug ([1]; Visit 8, MMRM, MITT, P = 0.049): 1.41 (0.01, 2.82)
HAMD-17, Difference (95% CI) placebo vs drug ([1]; Visit 8, MMRM, MITT, P = 0.125): 3.12 (−0.87, 7.12)
CGI-S, Difference (95% CI) placebo vs drug ([1]; Visit 8, MMRM, MITT, P = 0.306): 0.22 (−0.21, 0.66)
Diastolic BP - Standing, Mean Change from baseline ([1]; Visit 8, Safety Population, n = 33, P value vs. placebo 0.017): −3.00 mm Hg
Supine Pulse, Mean Change from baseline ([1]; Visit 8, Safety Population, n = 33, P value vs. placebo 0.145): 1.55 beats per minute
LDL Cholesterol Fasting, Mean Change from baseline ([1]; Visit 8, Safety Population, n = 33, P value vs. placebo 0.374): -4.29 mg/dL
Total Cholesterol Fasting, Mean Change from baseline ([1]; Visit 8, Safety Population, n = 33, P value vs. placebo 0.412): -5.86 mg/dL
Systolic BP - Standing, Mean Change from baseline ([1]; Visit 8, Safety Population, n = 33, P value vs. placebo 0.509): 0.069 mm Hg
Triglycerides Fasting, Mean Change from baseline ([1]; Visit 8, Safety Population, n = 33, P value vs. placebo […]): -12.00 mg/dL
Systolic BP - Supine, Mean Change from baseline ([1]; Visit 8, Safety Population, n = 33, P value vs. placebo 0.904): 2.58 mm Hg
Diastolic BP - Supine, Mean Change from baseline ([1]; Visit 8, Safety Population, n = 33, P value vs. placebo 0.961): −0.38 mm Hg
Weight, Mean Change from baseline ([1]; Visit 8, Safety Population, n = 33, P value vs. placebo 0.965): 0.078 kg
overall statistical effect size (Cohen's d), MADRS ([1]; Week 6): −0.63
MADRS total score, estimated LS mean change from baseline (MMRM) ([1]; Week 6, placebo […], p=0.028): 18.16
patients who reported an adverse treatment event ([1]; human, in vivo): 30.30%
Treatment-Emergent Adverse Event: Abdominal Pain (NOS), % of Patients ([1]; n = 33): 6.06%
Treatment-Emergent Adverse Event: Abdominal Pain (NOS), number of patients ([1]; n = 33): 2
Treatment-Emergent Adverse Event: Anxiety, % of Patients ([1]; n = 33): 6.06%
Treatment-Emergent Adverse Event: Anxiety, number of patients ([1]; n = 33): 2
Treatment-Emergent Adverse Event: Diarrhea NOS, % of Patients ([1]; n = 33): 6.06%
Treatment-Emergent Adverse Event: Diarrhea NOS, number of patients ([1]; n = 33): 2
Treatment-Emergent Adverse Event: Emotional Disturbance NOS, % of Patients ([1]; n = 33): 6.06%
Treatment-Emergent Adverse Event: Emotional Disturbance NOS, number of patients ([1]; n = 33): 2
Treatment-Emergent Adverse Event: Headache NOS, % of Patients ([1]; n = 33): 9.09%
Treatment-Emergent Adverse Event: Headache NOS, number of patients ([1]; n = 33): 3
Treatment-Emergent Adverse Event: Irritability, % of Patients ([1]; n = 33): 6.06%
Treatment-Emergent Adverse Event: Irritability, number of patients ([1]; n = 33): 2
Treatment-Emergent Adverse Event: Nausea, % of Patients ([1]; n = 33): 6.06%
Treatment-Emergent Adverse Event: Nausea, number of patients ([1]; n = 33): 2
Treatment-Emergent Adverse Event: Rash NOS, % of Patients ([1]; n = 33): 6.06%
Treatment-Emergent Adverse Event: Rash NOS, number of patients ([1]; n = 33): 2
Treatment-Emergent Adverse Event: Upper Respiratory Tract Infection NOS, % of Patients ([1]; n = 33): 6.06%
Treatment-Emergent Adverse Event: Upper Respiratory Tract Infection NOS, number of patients ([1]; n = 33): 2
bacterial reverse mutation assay outcome [2]: negative in the bacterial reverse mutation assay
Abdomibal Pain Upper, % of subjects [3, 6]: 0.0%
Abdomibal Pain Upper, number of subjects with AE [3, 6]: 0
Abdominal Pain Lower, % of subjects [3, 6]: 0.0%
Abdominal Pain Lower, number of subjects with AE [3, 6]: 0
Diarrhea, % of subjects [3, 6]: 6.5%
Diarrhea, number of subjects with AE [3, 6]: 2
Dizziness, % of subjects [3, 6]: 6.5%
Dizziness, number of subjects with AE [3, 6]: 2
Gastroesophageal Reflux Disease, % of subjects [3, 6]: 0.0%
Gastroesophageal Reflux Disease, number of subjects with AE [3, 6]: 0
Headache, % of subjects [3, 6]: 22.6%
Headache, number of subjects with AE [3, 6]: 7
Hyperhidrosis, % of subjects [3, 6]: 3.2%
Hyperhidrosis, number of subjects with AE [3, 6]: 1
Increased Appetite, % of subjects [3, 6]: 3.2%
Increased Appetite, number of subjects with AE [3, 6]: 1
Metrorrhagia, % of subjects [3, 6]: 3.2%
Metrorrhagia, number of subjects with AE [3, 6]: 1
Nausea, % of subjects [3, 6]: 16.1%
Nausea, number of subjects with AE [3, 6]: 5
Pruritus, % of subjects [3, 6]: 3.2%
Pruritus, number of subjects with AE [3, 6]: 1
Rhinitis Allergic, % of subjects [3, 6]: 3.2%
Rhinitis Allergic, number of subjects with AE [3, 6]: 1
Skin Rash, % of subjects [3, 6]: 3.2%
Skin Rash, number of subjects with AE [3, 6]: 1
Subjects with at Least One AE, % [3, 6]: 35.5%
Syncope, % of subjects [3, 6]: 0.0%
Syncope, number of subjects with AE [3, 6]: 0
Toothache, % of subjects [3, 6]: 3.2%
Toothache, number of subjects with AE [3, 6]: 1
Total Number of Subjects with at Least One AE [3, 6]: 11
proportion of subjects with TEAEs ([3]; 25-75 mg BID, 8 weeks): 36%
Completed Subjects, % ([3]; Randomized Population, N = 31): 74.2%
Premature discontinuation: Adverse Event, % ([3]; Randomized Population, N = 31): 3.2%
Premature discontinuation: Allergic Reaction to Study Medication, % ([3]; Randomized Population, N = 31): 3.2%
Premature discontinuation: Lost to Follow Up, % ([3]; Randomized Population, N = 31): 3.2%
Premature discontinuation: Other, % ([3]; Randomized Population, N = 31): 9.7%
Premature discontinuation: Subject Requested Withdrawal, % ([3]; Randomized Population, N = 31): 6.5%
Withdrawal/Early Termination, % ([3]; Randomized Population, N = 31): 25.8%
reduction in mean triglyceride levels ([3]; end of treatment period): ~29%
reduction in mean triglyceride levels ([3]; following 2 weeks of treatment): ~23%
subjects who dropped out due to AEs ([3]; in vivo): 3.2%
